Holding throughout (assay type): functional
In experiment [1] the test system is Mus musculus. Kind of experiment: Tested for antiinflammatory activity on mouse type II collagen arthritis as Paw swelling of all animals in each group on day 37 at intraperitoneal dose of 8 mg/kg.
The test system of experiment [2] is Mus musculus. The experiment is described as follows: Tested for antiinflammatory activity on mouse type II collagen arthritis as Paw swelling of all animals in each group on day 23 at intraperitoneal dose of 8 mg/kg.
Experiment [3] has as its system Mus musculus. The experiment is described as follows: Incidence of disease (mouse type II collagen) was scored as the percentage of animals within each experimental group that exhibited joint or limb inflammation on day 30 at intraperitoneal dose of 8 mg/kg.
Experiment [4] concerns Mus musculus. The experiment is described as follows: Incidence of disease (mouse type II collagen) was scored as the percentage of animals within each experimental group that exhibited joint or limb inflammation on day 37 at intraperitoneal dose of 8 mg/kg.
Experiment [5] has as its system Mus musculus. The experiment is described as follows: Incidence of disease (mouse type II collagen) was scored as the percentage of animals within each experimental group that exhibited joint or limb inflammation on day 23 at intraperitoneal dose of 8 mg/kg.
The test system of experiment [6] is Mus musculus. The experiment is described as follows: Tested for antiinflammatory activity on mouse type II collagen arthritis as Paw swelling of all animals in each group on day 44 at intraperitoneal dose of 8 mg/kg.
For experiment [7], the system named is Mus musculus. The experiment is described as follows: Incidence of disease (mouse type II collagen) was scored as the percentage of animals within each experimental group that exhibited joint or limb inflammation on day 44 at intraperitoneal dose of 8 mg/kg.
Experiment [8] deals with Mus musculus. Kind of experiment: Tested for antiinflammatory activity on mouse type II collagen arthritis as Paw swelling of all animals in each group on day 30 at intraperitoneal dose of 8 mg/kg.

As to `Nc1nc(N)c2cc(CCc3ccc(C(=O)NC(CCC(=O)O)C(=O)O)s3)cnc2n1` (stereo not drawn), the Paw swelling in experiment [1] came out at 2.6 mm; in experiment [2] it was 2.13 mm; in experiment [6], 2.63 mm; in experiment [8], 2.19 mm. The Animals is on record as 25% in experiment [3], 88% in experiment [4], 0% in experiment [5] and 88% in experiment [7].

Values taken from ChEMBL document CHEMBL1129930, “Analogues of methotrexate in rheumatoid arthritis. 2. Effects of 5-deazaaminopterin, 5,10-dideazaaminopterin, and analogues on type II collagen-induced arthritis in mice” (J Med Chem, 1997).
